Earlier results in patent US20250223207A1, “COMPOSITIONS OF SUPPORTED METAL CATALYSTS AND METHODS THEREOF” (THE TEXAS A&M UNIVERSITY SYSTEM, priority 2024, published 2025).

Details: human bodies, oral

For `COc1cc(Cc2cnc(N)nc2N)cc(OC)c1OC` [TMP, Trimethoprim], the “Fraction of orally taken dose metabolized” value is listed as 22.5%.

Details: PFAS compounds, Table 7

First: O=C(O)C(F)(OC(F)(F)C(F)(F)C(F)(F)F)C(F)(F)F (stereo not shown) [HFPO-DA, hexafluoropropylene oxide dimer acid]
Second: O=C(O)C(F)(F)C(F)(F)C(F)(F)C(F)(F)C(F)(F)C(F)(F)C(F)(F)F [PFOA, perfluorooctanoic acid]
The pKa of the first is higher: 2.84 for the first, 1.30 for the second.

`O=S(=O)(O)C(F)(F)C(F)(F)C(F)(F)C(F)(F)F` [PFBS, perfluorobutane sulfonic acid] and `O=S(=O)(O)C(F)(F)C(F)(F)C(F)(F)C(F)(F)C(F)(F)C(F)(F)F` [PFHxS, perfluorohexanesulfonic acid] are within 0.2 log units of each other in pKa: −3.31 for the first, −3.32 for the second.

For `O=C(O)C(F)(F)C(F)(F)C(F)(F)C(F)(F)C(F)(F)C(F)(F)C(F)(F)C(F)(F)F` [PFNA, perfluorononanoic acid], the pKa is given as −0.21.

In the case of `O=S(=O)(O)C(F)(F)C(F)(F)C(F)(F)C(F)(F)C(F)(F)C(F)(F)C(F)(F)C(F)(F)F` [PFOS, perfluoro octane sulfonic acid], the pKa is listed as “=<1.0”.
